Patent publication US20110028686A1, “Protein binding miniature proteins” (Yale University, priority 2000, published 2011)
Where “and” joins values, the source holds several entries; their conditions need not be identical. Identical values can stand only once. Like-named read-outs stand apart in the source and are kept apart here. Ends that are not written are not given here. Peptide text beside a SMILES is read from it. * marks the point of attachment. Fluorescein(5-NHCOCH2) = O=C(C*)Nc1ccc2c(c1)C(=O)OC21c2ccc(O)cc2Oc2cc(O)ccc21

Tests used:
[1] = molecular target: T1, HisKIX (His-tagged CBP KIX domain) (Mus musculus, UniProt P45481); assay: Equilibrium fluorescence polarization, HisKIX binding; settings: 25° C.
T1 construct: The CBP KIX-coding region (residues 586 to 672) of pGEX-KT KIX 10-672; made in house; host or cells: E. coli BL21(DE3) pArg
T1 sequence (P45481 586-672): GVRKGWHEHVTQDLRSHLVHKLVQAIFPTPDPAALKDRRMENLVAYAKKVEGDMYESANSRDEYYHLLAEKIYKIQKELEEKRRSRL

GST-KIX = molecular target: T2, GST-KIX (Mus musculus, UniProt P45481); assay: Fluorescence polarization, wild type GST-KIX; assay type: binding
T2 construct: pGST-ΔKIX(588-683) (a gift from Jennifer Nyborg); made in house; host or cells: E. coli BL21(DE3) pArg
T2 sequence (P45481 588-683): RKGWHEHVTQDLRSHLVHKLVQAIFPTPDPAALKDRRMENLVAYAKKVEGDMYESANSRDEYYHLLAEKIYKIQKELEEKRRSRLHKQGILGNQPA

Carbonic anhydrase II = molecular target: T3, Carbonic anhydrase II (Homo sapiens, UniProt P00918); assay: Fluorescence polarization specificity, carbonic anhydrase II; assay type: binding; settings: carbonic anhydrase II as target protein; read-out: Kd CA
T3 construct: purchased Sigma
From the text: (§1) Given the myriad protein surfaces present in the cell, the utility of molecules that recognize protein surfaces will depend on their ability to interact selectively with the desired protein.

Calmodulin [2] = molecular target: T4, Calmodulin (Homo sapiens, UniProt P0DP23); assay: Fluorescence polarization specificity, calmodulin; assay type: binding; settings: calmodulin as target protein; read-out: Kd CalM
T4 construct: purchased Sigma
From the text: as §1

CBP KIX wild type = molecular target: T5, CBP KIX wild type (Mus musculus, UniProt P45481); assay: Equilibrium fluorescence polarization, wild type CBP KIX; assay type: binding; settings: 25° C.
T5 construct: made in house; host or cells: E. coli BL21(DE3) pArg
T5 sequence (P45481 586-665 limits assumed): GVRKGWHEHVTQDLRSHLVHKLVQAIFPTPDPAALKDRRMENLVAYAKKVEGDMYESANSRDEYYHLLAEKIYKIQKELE

CBP KIX Y658A = molecular target: T6, CBP KIX Y658A (Mus musculus, UniProt P45481, Y658A); assay: Equilibrium fluorescence polarization, CBP KIX variant Y658A; assay type: binding; settings: 25° C.
T6 construct: made in house; host or cells: E. coli BL21(DE3) pArg
T6 sequence (P45481 586-665 Y658A limits assumed): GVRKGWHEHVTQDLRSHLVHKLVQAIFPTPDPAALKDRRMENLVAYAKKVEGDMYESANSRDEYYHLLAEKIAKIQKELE

CBP KIX Y658F = molecular target: T7, CBP KIX Y658F (Mus musculus, UniProt P45481, Y658F); assay: Equilibrium fluorescence polarization, CBP KIX variant Y658F; assay type: binding; settings: 25° C.
T7 construct: made in house; host or cells: E. coli BL21(DE3) pArg
T7 sequence (P45481 586-665 Y658F limits assumed): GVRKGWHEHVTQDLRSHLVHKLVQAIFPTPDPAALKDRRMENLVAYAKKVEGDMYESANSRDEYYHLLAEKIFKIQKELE

CBP KIX K662A = molecular target: T8, CBP KIX K662A (Mus musculus, UniProt P45481, K662A); assay: Equilibrium fluorescence polarization, CBP KIX variant K662A; assay type: binding; settings: 25° C.
T8 construct: made in house; host or cells: E. coli BL21(DE3) pArg
T8 sequence (P45481 586-665 K662A limits assumed): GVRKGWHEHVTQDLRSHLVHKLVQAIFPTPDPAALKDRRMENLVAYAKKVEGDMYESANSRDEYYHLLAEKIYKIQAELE

CBP KIX Y650A = molecular target: T9, CBP KIX Y650A (Mus musculus, UniProt P45481, Y650A); assay: Equilibrium fluorescence polarization, CBP KIX variant Y650A; assay type: binding; settings: 25° C.
T9 construct: made in house; host or cells: E. coli BL21(DE3) pArg
T9 sequence (P45481 586-665 Y650A limits assumed): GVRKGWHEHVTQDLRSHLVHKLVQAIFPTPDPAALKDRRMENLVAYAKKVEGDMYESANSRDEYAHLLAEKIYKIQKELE

CBP KIX L603A = molecular target: T10, CBP KIX L603A (Mus musculus, UniProt P45481, L603A); assay: Equilibrium fluorescence polarization, CBP KIX variant L603A; assay type: binding; settings: 25° C.
T10 construct: made in house; host or cells: E. coli BL21(DE3) pArg
T10 sequence (P45481 586-665 L603A limits assumed): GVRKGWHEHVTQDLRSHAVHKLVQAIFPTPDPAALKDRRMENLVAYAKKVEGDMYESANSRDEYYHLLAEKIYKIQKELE

CBP KIX LL652-3AA = molecular target: T11, CBP KIX LL652-3AA (Mus musculus, UniProt P45481, L652A/L653A); assay: Equilibrium fluorescence polarization, CBP KIX variant LL652-3AA; assay type: binding; settings: 25° C.
T11 construct: made in house; host or cells: E. coli BL21(DE3) pArg
T11 sequence (P45481 586-665 L652A/L653A): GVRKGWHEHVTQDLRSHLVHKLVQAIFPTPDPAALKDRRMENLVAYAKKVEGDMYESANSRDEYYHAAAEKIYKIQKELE

CBP KIX K606A = molecular target: T12, CBP KIX K606A (Mus musculus, UniProt P45481, K606A); assay: Equilibrium fluorescence polarization, CBP KIX variant K606A; assay type: binding; settings: 25° C.
T12 construct: made in house; host or cells: E. coli BL21(DE3) pArg
T12 sequence (P45481 586-665 K606A limits assumed): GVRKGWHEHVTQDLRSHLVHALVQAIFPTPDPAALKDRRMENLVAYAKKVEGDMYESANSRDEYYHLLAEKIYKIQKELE

CBP KIX I657A = molecular target: T13, CBP KIX I657A (Mus musculus, UniProt P45481, I657A); assay: Equilibrium fluorescence polarization, CBP KIX variant I657A; assay type: binding; settings: 25° C.
T13 construct: made in house; host or cells: E. coli BL21(DE3) pArg
T13 sequence (P45481 586-665 I657A limits assumed): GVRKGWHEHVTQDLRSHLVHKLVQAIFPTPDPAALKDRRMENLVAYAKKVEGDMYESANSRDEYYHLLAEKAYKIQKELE

CBP KIX L599A = molecular target: T14, CBP KIX L599A (Mus musculus, UniProt P45481, L599A); assay: Equilibrium fluorescence polarization, CBP KIX variant L599A; assay type: binding; settings: 25° C.
T14 construct: made in house; host or cells: E. coli BL21(DE3) pArg
T14 sequence (P45481 586-665 L599A limits assumed): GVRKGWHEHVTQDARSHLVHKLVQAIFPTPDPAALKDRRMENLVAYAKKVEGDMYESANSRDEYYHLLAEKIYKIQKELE

CBP KIX Q661A = molecular target: T15, CBP KIX Q661A (Mus musculus, UniProt P45481, Q661A); assay: Equilibrium fluorescence polarization, CBP KIX variant Q661A; assay type: binding; settings: 25° C.
T15 construct: made in house; host or cells: E. coli BL21(DE3) pArg
T15 sequence (P45481 586-665 Q661A limits assumed): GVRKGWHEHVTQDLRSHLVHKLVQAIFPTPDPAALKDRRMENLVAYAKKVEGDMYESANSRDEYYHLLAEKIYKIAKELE

CBP KIX E655A = molecular target: T16, CBP KIX E655A (Mus musculus, UniProt P45481, E655A); assay: Equilibrium fluorescence polarization, CBP KIX variant E655A; assay type: binding; settings: 25° C.
T16 construct: made in house; host or cells: E. coli BL21(DE3) pArg
T16 sequence (P45481 586-665 E655A limits assumed): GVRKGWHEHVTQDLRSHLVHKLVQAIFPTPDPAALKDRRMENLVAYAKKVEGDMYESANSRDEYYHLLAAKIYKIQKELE

CBP KIX I660A = molecular target: T17, CBP KIX I660A (Mus musculus, UniProt P45481, I660A); assay: Equilibrium fluorescence polarization, CBP KIX variant I660A; assay type: binding; settings: 25° C.
T17 construct: made in house; host or cells: E. coli BL21(DE3) pArg
T17 sequence (P45481 586-665 I660A limits assumed): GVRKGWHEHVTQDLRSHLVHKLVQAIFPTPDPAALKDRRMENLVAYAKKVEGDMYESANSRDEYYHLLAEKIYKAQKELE

[3] = Circular dichroism thermal denaturation; assay type: physicochemical; settings: far UV circular dichroism at 222 nm
Method: Spectra were acquired in 0.5×PBS at 25° C. using a Aviv Model 62DS spectrometer. […] Each data set represents the average of 10 scans. Spectra were background corrected but were not smoothed. (b) Temperature dependence of the CD spectrum of pP53-05. ΘMRE is in units of deg·cm^2·dmol^−1.
Circular dichroism spectra were recorded in PBS on an Aviv 202 CD Spectrometer and were background corrected but not smoothed. Wavelength scans were performed at 4° C. between 200 and 260 nm at 1 nm intervals with a recording time of five seconds at each interval. Bak (72-94), 4099, 4100, 4101, 4102 were used at concentrations of 0.028 mM, 0.0069 mM, 0.0119 mM, 0.014 mM and 0.016 mM respectively. Thermal denaturation curves were measured at 222 nm between 4-98° C. with 2° C. steps and one minute equilibration at each temperature. Peptides were used at the highest concentrations used for the wavelength scans described above. Mean residue elliptcity and percent helicity were calculated from the value at 222 nm after background correction.

GST-MDM2 [4] = molecular target: T18, GST-MDM2 (Homo sapiens, UniProt Q00987); assay: Fluorescence polarization, affinity for GST-MDM2; assay type: binding; settings: fluorescein-labeled peptide; read-out: equilibrium dissociation constant (Kd) of the peptide·GST-MDM2 complex
T18 sequence (Q00987 whole entry): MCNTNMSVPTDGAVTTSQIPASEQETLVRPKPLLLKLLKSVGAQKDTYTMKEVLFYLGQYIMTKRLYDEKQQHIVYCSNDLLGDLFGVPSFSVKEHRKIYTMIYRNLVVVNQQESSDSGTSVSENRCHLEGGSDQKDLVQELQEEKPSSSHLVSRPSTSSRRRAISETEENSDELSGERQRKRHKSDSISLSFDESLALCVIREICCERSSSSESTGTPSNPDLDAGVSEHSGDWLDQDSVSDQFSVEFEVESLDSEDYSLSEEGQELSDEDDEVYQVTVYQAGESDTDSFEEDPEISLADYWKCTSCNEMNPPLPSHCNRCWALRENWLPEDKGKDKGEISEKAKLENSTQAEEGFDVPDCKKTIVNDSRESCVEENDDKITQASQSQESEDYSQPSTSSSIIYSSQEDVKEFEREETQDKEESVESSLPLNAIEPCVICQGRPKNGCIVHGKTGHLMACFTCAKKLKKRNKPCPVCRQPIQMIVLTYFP
Method: (§4) Residues in yellow and blue stabilize the aPP hydrophobic core; those in red contribute to the binding of MDM2.
(§5) Each point represents the average of at least three trials. Error bars represent the standard error. Kd values were calculated as described in Heyduk, et al., Proc Natl Acad Sci USA 1990, 87, 1744. […] Ki was calculated using the Cheng-Prusoff equation.

GST-MDM2 [5] = assay: Fluorescence polarization, affinity for GST-MDM2; assay type: binding, human; settings: calmodulin, Fos, carbonic anhydrase, protein kinase A vs GST-MDM2
Method: as §4, §5

GST-MDM2 [6] = molecular target: T18, GST-MDM2; assay: Competition fluorescence polarization, p53AD-Flu bound to GST-MDM2; assay type: binding; settings: p53AD-Flu 10 nM, GST-MDM2 400 nM; Cheng-Prusoff
Method: as §5

Calmodulin [7] = molecular target: T4, Calmodulin; assay: Fluorescence polarization specificity, calmodulin; assay type: binding
Method: (§2) FIG. 3—Fluorescence polarization analysis of the affinity of GST-MDM2 for selected peptides and the affinity of pP53-05 for selected proteins. […] Each point represents the average of at least three trials. Error bars represent the standard error. Kd values were calculated as described in Heyduk, et al., Proc Natl Acad Sci USA 1990, 87, 1744. […] Plot illustrates the fraction of p53AD-Flu (10 nM) bound to GST-MDM2 (400 nM) at equilibrium as a function of added pP53-05 (4.5 μM-0.18 μM). Ki was calculated using the Cheng-Prusoff equation.
(§3) The specificity of pP53-05 was evaluated by measuring its affinity for several receptors and enzymes that bind helical or hydrophobic peptides or small molecules (FIG. 3).

bZIP region of Fos = molecular target: T19, bZIP region of Fos (Homo sapiens, UniProt P01100); assay: Fluorescence polarization specificity, Fos; assay type: binding
T19 construct: the bZIP region of Fos, which forms dimeric complexes with other bZIP proteins
T19 sequence (P01100 137-200 limits assumed): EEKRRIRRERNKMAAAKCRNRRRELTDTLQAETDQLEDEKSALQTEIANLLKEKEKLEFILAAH
Method: as §2, §3

carbonic anhydrase = assay: Fluorescence polarization specificity, carbonic anhydrase; assay type: binding
Method: as §2, §3

protein kinase A = protein kinase A (Homo sapiens, UniProt P17612); assay: Fluorescence polarization specificity, protein kinase A; assay type: binding
Method: as §2, §3

KIX = settings: various techniques; isothermal titration calorimetry for KID(129-149)^P; read-out: previously reported Kd of KID^P·KIX complexes; cited from earlier work
Chain of KIX (Q92793 587-673 limits assumed): as the sequence (P45481 586-672) above

Compound: CC[C@H](C)[C@H](NC(=O)CN)C(=O)N[C@@H](CO)C(=O)N[C@@H](Cc1c[nH]c2ccccc12)C(=O)N1CCC[C@H]1C(=O)N[C@H](C(=O)N[C@@H](Cc1ccccc1)C(=O)N[C@@H](CCC(=O)O)C(=O)NCC(=O)N[C@@H](CC(=O)O)C(=O)N[C@@H](CC(=O)O)C(=O)N[C@@H](C)C(=O)N1CCC[C@H]1C(=O)N[C@H](C(=O)N[C@@H](CCCNC(=N)N)C(=O)N[C@@H](CCCNC(=N)N)C(=O)N[C@@H](CC(C)C)C(=O)N[C@@H](CO)C(=O)N[C@@H](Cc1ccccc1)C(=O)N[C@@H](Cc1ccccc1)C(=O)N[C@@H](Cc1ccc(O)cc1)C(=O)N[C@H](C(=O)N[C@@H](CC(C)C)C(=O)N[C@@H](CC(C)C)C(=O)N[C@@H](CC(=O)O)C(=O)N[C@@H](CC(C)C)C(=O)N[C@@H](Cc1ccc(O)cc1)C(=O)N[C@@H](CC(C)C)C(=O)N[C@@H](CC(=O)O)C(=O)N[C@@H](C)C(=O)N1CCC[C@H]1C(=O)NCC(=O)N[C@H](C(=O)N[C@@H](CSCC(=O)Nc1ccc2c(c1)C(=O)OC21c2ccc(O)cc2Oc2cc(O)ccc21)C(N)=O)C(C)C)[C@@H](C)CC)C(C)C)[C@@H](C)O [PPKID6] (H-GISWPTFEGDDAPVRRLSFFYILLDLYLDAPGVC(Fluorescein(5-NHCOCH2))-NH2)
- Kd ([1]; fluorescein-labeled phosphopeptide, read-out: Kd HisKIX, phosphorylated peptide (P)): 624 ± 49 nM
- Kd ([1]; label shows phosphorylated (P) or unphosphorylated (U) form, read-out: Kd HisKIX): 1500 to 3100 nM and 1500 nM
- Kd (GST-KIX): 714 ± 128 nM
- Kd (Carbonic anhydrase II): 79000 ± 13000 nM
- Kd (Calmodulin [2]): ≥ 168000 nM
- Kd (CBP KIX wild type): 540 ± 60 nM
- Kd (CBP KIX Y658A): 1700 ± 400 nM
- Kd (CBP KIX Y658F): 2800 ± 400 nM
- Kd (CBP KIX K662A): 1800 ± 300 nM
- Kd (CBP KIX Y650A): 1300 ± 200 nM
- Kd (CBP KIX L603A): 2500 ± 300 nM
- Kd (CBP KIX LL652-3AA): 140 ± 20 nM
- Kd (CBP KIX K606A): 1200 ± 100 nM
- Kd (CBP KIX I657A): 3600 ± 400 nM
- Kd (CBP KIX L599A): 3300 ± 300 nM
- Kd (CBP KIX Q661A): 410 ± 60 nM
- Kd (CBP KIX E655A): 1700 ± 200 nM
- Kd (CBP KIX I660A): 6100 ± 700 nM

Compound: CC[C@H](C)[C@H](NC(=O)[C@H](CC(C)C)NC(=O)[C@H](CC(=O)O)NC(=O)[C@H](CCC(=O)O)NC(=O)[C@@H](NC(=O)[C@@H]1CCCN1C(=O)[C@H](C)NC(=O)[C@H](CC(=O)O)NC(=O)[C@H](CC(=O)O)NC(=O)CNC(=O)[C@@H]1CCCN1C(=O)[C@H](Cc1ccc(O)cc1)NC(=O)[C@@H](NC(=O)[C@@H]1CCCN1C(=O)[C@H](CCC(N)=O)NC(=O)[C@H](CO)NC(=O)[C@@H]1CCCN1C(=O)CN)[C@@H](C)O)C(C)C)C(=O)N[C@@H](CCCNC(=N)N)C(=O)N[C@@H](Cc1ccccc1)C(=O)N[C@@H](CCCCN)C(=O)N[C@@H](Cc1ccccc1)C(=O)N[C@@H](CC(C)C)C(=O)N[C@@H](CC(C)C)C(=O)N[C@@H](CCC(N)=O)C(=O)N[C@@H](Cc1c[nH]c2ccccc12)C(=O)N[C@@H](Cc1ccc(O)cc1)C(=O)N[C@@H](CC(C)C)C(=O)N[C@@H](CC(C)C)C(=O)N[C@@H](C)C(=O)N[C@@H](CC(C)C)C(N)=O [pP53-05] (H-GPSQPTYPGDDAPVEDLIRFKFLLQWYLLAL-NH2; N-terminus and C-terminus assumed)
- Tm, cooperative thermal melt [3]: 47 °C
- Kd (GST-MDM2 [4]): 99 ± 11 nM
- ΔΔG between stabilities of non-target protein complexes and pP53-05·GST-MDM2 (GST-MDM2 [5]): 2.8-4.4 kcal·mol^−1
- Ki (GST-MDM2 [6]): 722 nM
- Kd (Calmodulin [7]): > 275000 nM
- Kd (bZIP region of Fos): 42000 nM
- Kd (carbonic anhydrase): 298000 nM
- Kd (protein kinase A): 16000 nM

Compound: KID(129-149)^P: phosphorylated CREB KID residues 129-149, literature (SDAPGVPRIEEEKSEEETSAP; also: phosphorylated, sites not given here; UniProt P16220 129-149, looked up, fragment)
- Kd (KIX): 80000 nM
